This is an account of results in patent publication US20020040027A1, “Method for the prevention of the reinfestation of warm-blooded animals by ectoparasites” (priority 1996, published 2002).

Assay [1] has as its system cat fleas [Ctenocephalides felis]. The assay can be described thus: Flea control by oral administration of the active ingredient to the host animal (cats). Format: in vivo. As to conditions: cats infected with 100 cat fleas, treated orally on day 0 with 50 mg/kg of body weight (capsule); after 45 days. As to the method: Flea control by oral administration of the active ingredient to the host animal 20 cats with the proven ability permanently to maintain a flea population are divided into 6 groups: 5 groups each being composed of 3 or 4 animals and a sixth group, which serves as the control group, being composed of 2 animals. Each of the cats is infected with 100 cat fleas [Ctenocephalides felis]. The cats of the 5 groups are treated orally on day 0 with 50 mg of active ingredient per kg of body weight. The active ingredient is administered in the form of a capsule. The control group remains untreated. […] The eggs are counted and placed on a medium suitable for the growth of larvae and incubated. The number of pupae and fully grown fleas that develop is determined.

The next assay concerns Amblyomma hebraeum. The assay can be described thus: Tick control by subcutaneous administration of the active ingredient to the host animal (chicks). Format: in vivo. Particulars: subcutaneously injected dose of 3 mg/kg of body weight, treated vs untreated chicks; for % reduction nymphs: nymphs moulted from collected larvae; for % reduction larvae: replete larvae. As for the experimental part:
Tick control by subcutaneous administration of the active ingredient to the host animal
13 day-old chicks of a fattened breed are infected with about 200 larvae of the tick species Amblyomma hebraeum and placed in pairs in cages. After three days, the chicks are injected subcutaneously with the active ingredient in an aqueous suspension. Within 2 to 6 days of the treatment, i.e. 5 to 9 days after infection, the replete tick larvae fall from the chicks can be collected and counted. The activity of the test compounds is calculated on the basis of the number of replete larvae on treated and untreated chicks in accordance with the formula [formula]
where Ct is the average number of larvae from treated chicks and Cu is the average number of larvae from untreated chicks.
In order to determine this type of activity, the replete larvae are kept, separated into treatment groups, in an incubator until all the larvae collected from untreated chicks have moulted. The activity is calculated using the above mentioned formula, with the average number of nymphs being used instead of the average number of larvae.
Reduction of more than + 80 % can be regarded as systemic action.

On to `CC1(C)OCC(COc2ccc(Oc3cccc(F)c3)cc2)O1` (stereo not shown) [2-dimethyl-4-[4-(3-fluorophenoxy)-phenoxymethyl]-1,3-dioxolane], for which the “inhibition of the development of fleas” value in assay [1] stood at 100%.

Regarding `CC(C)C1OCC(COc2ccc(Oc3cc(F)cc(F)c3)cc2)O1` (stereo not shown) [4-[4-(3,5-difluorophenoxy)-phenoxymethyl]-2-isopropyl-1,3-dioxolane], in assay [1], the “inhibition of the development of fleas” value turned out to be 100%.

On to `c1ccc(Oc2ccc(OCC3COC(C4CC4)O3)cc2)cc1` (stereo not shown) [compound 2, 2-cyclopropyl-4-[4-(phenoxy)-phenoxymethyl]-1,3-dioxolane], for which, in the assay with Amblyomma hebraeum, the “% reduction nymphs” value was determined as 83% and the “% reduction larvae” value is 82%. As to `CC1(C)OCC(COc2ccc(Oc3cc(F)cc(F)c3)cc2)O1` (stereo not shown) [2-dimethyl-4-[4-(3,5-difluorophenoxy)-phenoxymethyl]-1,3-dioxolane], the “inhibition of the development of fleas” value in assay [1] is given as 100%. Take `CCC1OCC(COc2ccc(Oc3cccc(F)c3)cc2)O1` (stereo not shown) [compound 3, 2-ethyl-4-[4-(3-fluorophenoxy)-phenoxymethyl]-1,3-dioxolane]: the “inhibition of the development of fleas” value in assay [1] came out at 100%. Moreover, in the assay on Amblyomma hebraeum, the “% reduction nymphs” value came to 80% and the “% reduction larvae” value turned out to be 78%.

As for `CCC1OCC(C)(COc2ccc(Oc3cccc(F)c3)cc2)O1` (stereo not shown) [compound 1, 2-ethyl-4-[4-(3-fluorophenoxy)-phenoxymethyl]-4-methyl-1,3-dioxolane], in the assay with Amblyomma hebraeum, the “% reduction nymphs” value came out at 83% and the “% reduction larvae” value came out at 83%.
